Assay results reported in patent US5591757A, “Dihydropyridine composition” (Yamanouchi Pharmaceutical Co., Ltd., priority 1984, dated 1997).
Counter-ions that a name gives are not always drawn. Like-named read-outs stand apart in the source and are kept apart here. Blank lines part the entries; values can stand above or below the compound they belong to.

Key:
Beta-adrenoceptor [1] = biological target: T1, Beta-adrenoceptor (Rattus norvegicus, UniProt P18090); assay: Intrinsic sympathomimetic activity (ISA) in reserpinized rats; format: in vivo, male Wistar rats; set-up: The rats were anesthetized with pentobarbital sodium; from tissue; host or cells: heart in the living anesthetized male Wistar rat (reserpine-pretreated, vagotomized); conditions: reserpine-pretreated rats, iv
T1 sequence (P18090 whole entry): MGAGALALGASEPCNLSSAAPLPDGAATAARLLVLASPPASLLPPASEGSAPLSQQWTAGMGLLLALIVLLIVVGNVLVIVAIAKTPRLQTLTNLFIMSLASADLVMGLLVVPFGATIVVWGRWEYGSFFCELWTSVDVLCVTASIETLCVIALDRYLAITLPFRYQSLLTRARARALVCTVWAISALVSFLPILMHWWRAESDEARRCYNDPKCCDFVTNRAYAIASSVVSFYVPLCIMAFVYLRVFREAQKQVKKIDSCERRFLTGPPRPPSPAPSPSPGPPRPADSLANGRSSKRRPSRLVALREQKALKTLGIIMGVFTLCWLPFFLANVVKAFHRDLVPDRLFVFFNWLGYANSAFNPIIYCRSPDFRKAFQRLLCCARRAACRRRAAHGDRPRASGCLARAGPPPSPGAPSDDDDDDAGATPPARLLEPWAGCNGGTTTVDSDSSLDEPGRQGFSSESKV
Protocol: (§1) The rats were pretreated with reserpine (8 mg/kg ip), 18 hr before experiments. […] The heart rate was measured with a cardiotachometer triggered by the QRS of the ECG (lead II) and recorded on a polygraph. After the Control response to isoproterenol at a dose of 0.1 μg/kg iv was obtained, the test compound was injected iv in increasing doses at 20 min intervals.
In this series of experiments, intrinsic sympathomimetic activity (ISA) was also evaluated.

Beta-adrenoceptor [2] = biological target: T1, Beta-adrenoceptor; assay: Beta-adrenoceptor blocking effect in reserpinized rats (isoproterenol chronotropy); format: in vivo, male Wistar rats; set-up: The rats were anesthetized with pentobarbital sodium; from tissue; host or cells: heart in the living anesthetized male Wistar rat (reserpine-pretreated, vagotomized); conditions: isoproterenol 0.1 μg/kg iv, cumulative iv doses, read-out: Beta-Blocking ED50 (50% blockade of positive chronotropic response to isoproterenol)
Protocol: as §1

[3] = test system: mean arterial blood pressure (MBP) and coronary blood flow (Cor. BF); assay: Hemodynamic effects in anesthetized open-chest dogs (i.v.); format: in vivo, mongrel dogs; conditions: Canis lupus familiaris, anesthetized dogs; for change in vivo at 0.1 mg/kg: 0.1 mg/kg iv; for change in vivo at 1 mg/kg: 1.0 mg/kg iv; for change in vivo at 0.3 mg/kg: 0.3 mg/kg iv; for change in vivo at 0.03 mg/kg: 0.03 mg/kg iv
Protocol: Mongrel dogs of either sex were anesthetized with pentobarbital sodium (30 mg/kg iv). The animals were artificially ventilated with room air. The chest was opened at the left 4th intercostal space. Mean arterial blood pressure (MBP), heart rate (HR), left ventricular pressure (LVP), max. dLVP/dt, mean pulmonary arterial blood pressure (MPAP), cardiac output (CO) and coronary blood flow (Cor. BF) were measured. The test compounds were injected into the femoral vein. […] BF from control values induced by intravenous injection of test compounds.

left coronary artery = assay: Coronary vasodilating effects in dogs (intracoronary); format: in vivo, mongrel dogs; conditions: for Duration of action of coronary vasodilating effect: intracoronary (ia)
Protocol: Mongrel dogs of either sex were anesthetized and ventilated as previously described. A thoracotomy was performed at the 4th intercostal space. Following an intravenous injection of heprin (1000 units/kg), blood from the distal end of the cannulated carotid artery was pumped into circumflex branch of the left coronary artery using a servocontrolled peristaltic pump which maintained a constant perfusion pressure of 120 mmHg by means of a pump controller. An electromagnetic flow probe was inserted in the circit to record blood flow through the cannulated coronary artery. The test compounds were administered directly into the rubber tubing connected close to the coronary artery cannula.

[4] = read-out: percent change of Cor. BF from control
[5] = read-out: percent change of MBP from control

Compound: COC(=O)C1=C(C)NC(C)=C(C(=O)OCCCCCCNCC(O)COc2ccccc2C#N)C1c1cccc([N+](=O)[O-])c1.Cl (stereo not drawn) [Example 30, 6-[3-(o-cyanophenoxy)-2-hydroxypropylamino]hexyl methyl 2,6-dimethyl-4-(m-nitrophenyl)-1,4-di-hydropyridine-3,5-dicarboxylate hydrochloride]
ISA (increase in HR) (Beta-adrenoceptor [1]): -
ED50 (Beta-adrenoceptor [2]): 0.79 mg/kg
change in vivo at 0.1 mg/kg [3, 4]: 12%
change in vivo at 0.1 mg/kg [3, 5]: -21%

Compound: CC1=C(C(=O)OCCCCCCNCC(O)COc2ccccc2)C(c2cccc([N+](=O)[O-])c2)C(C(=O)OC(C)(C)C)=C(C)N1.Cl (stereo not drawn) [Example 21, tert-butyl 6-(2-hydroxy-3-phenoxypropylamino)hexyl 2,6-dimethyl-4-(m-nitrophenyl)-1,4-dihydropyridine-3,5-dicarboxylate hydrochloride]
ISA (increase in HR) (Beta-adrenoceptor [1]): + (an increase in HR by 10 to 19 beats/min was observed)
ED50 (Beta-adrenoceptor [2]): 1.01 mg/kg
ED100 pap (dose for 100% increase of Cor. BF; maximum response to papaverine 300 μg ia = 100%) (left coronary artery): 137 μg ia
Duration of action of coronary vasodilating effect (left coronary artery): 60 min
change in vivo at 1 mg/kg [3, 4]: 34%
change in vivo at 1 mg/kg [3, 5]: -28%

ISA (increase in HR) (Beta-adrenoceptor [1]): -
ED50 (Beta-adrenoceptor [2]): 1.18 mg/kg
Compound: COC(=O)C1=C(C)NC(C)=C(C(=O)OCCCCCCNCC(O)COc2ccccc2Cl)C1c1cccc([N+](=O)[O-])c1 (stereo not drawn) [Example 32, 6-[3-(o-chlorophenoxy)-2-hydroxypropylamino]hexyl methyl 2,6-dimethyl-4-(m-nitrophenyl)-1,4-dihyrdopyridine-3,5-dicarboxylate hydrochloride]
change in vivo at 0.1 mg/kg [3, 4]: 35%
change in vivo at 0.1 mg/kg [3, 5]: -18%
change in vivo at 0.3 mg/kg [3, 4]: 93%
change in vivo at 0.3 mg/kg [3, 5]: -36%

Compound: COC(=O)C1=C(C)NC(C)=C(C(=O)OCCCCCCCCCCNCC(O)COc2ccccc2)C1c1cccc([N+](=O)[O-])c1.Cl (stereo not drawn) [Example 13, 10-(2-hydroxy-3-phenoxy-propylamino)decyl methyl 2,6-dimethyl-4-(m-nitro-phenyl)-1,4-dihydropyridine-3,5-dicarboxylate hydrochloride]
ISA (increase in HR) (Beta-adrenoceptor [1]): + (an increase in HR by 10 to 19 beats/min was observed)
ED50 (Beta-adrenoceptor [2]): 0.72 mg/kg
ED100 pap (dose for 100% increase of Cor. BF; maximum response to papaverine 300 μg ia = 100%) (left coronary artery): 12 μg ia
Duration of action of coronary vasodilating effect (left coronary artery): 60 min
change in vivo at 0.03 mg/kg [3, 4]: 102%
change in vivo at 0.03 mg/kg [3, 5]: -21%

Compound: COC(=O)C1=C(C)NC(C)=C(C(=O)OCCCCCCNCC(O)COc2ccccc2)C1c1cccc(C)c1.Cl (stereo not drawn) [Example 48, 6-(2-hydroxy-3-phenoxypropylamino)hexyl methyl 2,6-dimethyl-4-(m-methylphenyl)-1,4-dihydro-pyridine-3,5-dicarboxylate hydrochloride]
ISA (increase in HR) (Beta-adrenoceptor [1]): -
ED50 (Beta-adrenoceptor [2]): 0.68 mg/kg
ED100 pap (dose for 100% increase of Cor. BF; maximum response to papaverine 300 μg ia = 100%) (left coronary artery): 76 μg ia
Duration of action of coronary vasodilating effect (left coronary artery): 60 min
change in vivo at 0.3 mg/kg [3, 4]: 71%
change in vivo at 0.3 mg/kg [3, 5]: -20%
change in vivo at 1 mg/kg [3, 4]: 92%
change in vivo at 1 mg/kg [3, 5]: -43%

Compound: COC(=O)C1=C(C)NC(C)=C(C(=O)OCCCCCCNCC(O)COc2ccccc2)C1c1cccc(Cl)c1.Cl (stereo not drawn) [Example 43, 6-(2-hydroxy-3-phenoxypropylamino)hexyl methyl 4-(m-chlorophenyl)-2,6-dimethyl-1,4-dihydro-pyridine-3,5-dicarboxylate hydrochloride]
ISA (increase in HR) (Beta-adrenoceptor [1]): -
ED50 (Beta-adrenoceptor [2]): 0.87 mg/kg
ED100 pap (dose for 100% increase of Cor. BF; maximum response to papaverine 300 μg ia = 100%) (left coronary artery): 56 μg ia
Duration of action of coronary vasodilating effect (left coronary artery): > 60 min
change in vivo at 0.3 mg/kg [3, 4]: 44%
change in vivo at 0.3 mg/kg [3, 5]: -22%

ED50 (Beta-adrenoceptor [2]): 0.66 mg/kg
Compound: COC(=O)C1=C(C)NC(C)=C(C(=O)OCCCCCCNCC(O)COc2ccccc2)C1c1cccc(OC)c1 (stereo not drawn) [Example 46, 6-(2-hydroxy-3-phenoxypropylamino)hexyl methyl 2,6-dimethyl-4-(m-methoxyphenyl)-1,4-dihyrdopyridine-3,5-dicarboxylate hydrochloride]
ISA (increase in HR) (Beta-adrenoceptor [1]): + (an increase in HR by 10 to 19 beats/min was observed)
ED100 pap (dose for 100% increase of Cor. BF; maximum response to papaverine 300 μg ia = 100%) (left coronary artery): 98 μg ia
Duration of action of coronary vasodilating effect (left coronary artery): > 60 min
change in vivo at 0.3 mg/kg [3, 4]: 36%
change in vivo at 0.3 mg/kg [3, 5]: -21%
change in vivo at 1 mg/kg [3, 4]: 78%
change in vivo at 1 mg/kg [3, 5]: -45%

ISA (increase in HR) (Beta-adrenoceptor [1]): -
ED50 (Beta-adrenoceptor [2]): 1.25 mg/kg
Compound: CCOC(=O)C1=C(C)NC(C)=C(C(=O)OCCCCCCNCC(O)COc2ccccc2)C1c1cccc([N+](=O)[O-])c1 (stereo not drawn) [Example 18, Ethyl 6-(2-hydroxy-3-phenoxy/propylamino)hexyl 2,6-dimethyl-4-(m-nitrophenyl)-1,4-dihydroxypyridine-3,5-dicarboxylate]
ED100 pap (dose for 100% increase of Cor. BF; maximum response to papaverine 300 μg ia = 100%) (left coronary artery): 67 μg ia
Duration of action of coronary vasodilating effect (left coronary artery): > 60 min
change in vivo at 0.3 mg/kg [3, 4]: 31%
change in vivo at 0.3 mg/kg [3, 5]: -22%

ISA (increase in HR) (Beta-adrenoceptor [1]): -
ED50 (Beta-adrenoceptor [2]): 0.82 mg/kg
Compound: COCCOC(=O)C1=C(C)NC(C)=C(C(=O)OCCCCCCNCC(O)COc2ccccc2)C1c1cccc([N+](=O)[O-])c1 (stereo not drawn) [Example 22, 6-(2-hydroxy-3-phenoxy-propylamino)hexyl 2-methoxyethyl-2,6-dimethyl-4-(m-nitrophenyl-3,5-dicarboxylate hydrochloride]
ED100 pap (dose for 100% increase of Cor. BF; maximum response to papaverine 300 μg ia = 100%) (left coronary artery): 128 μg ia
Duration of action of coronary vasodilating effect (left coronary artery): 60 min
change in vivo at 0.3 mg/kg [3, 4]: 118%
change in vivo at 0.3 mg/kg [3, 5]: -22%

ISA (increase in HR) (Beta-adrenoceptor [1]): -
ED50 (Beta-adrenoceptor [2]): 1.93 mg/kg
Compound: COC(=O)C1=C(C)NC(C)=C(C(=O)OCCCCCCNCC(O)COc2ccccc2)C1c1cccc(C(F)(F)F)c1 (stereo not drawn) [Example 7, 6-(2-hydroxy-3-phenoxypropylamino)hexyl methyl 2,6-dimethyl-4-(m-trifluoromethylphenyl)-1,4-dihydropyridin-3,5-dicarboxylate]
ED100 pap (dose for 100% increase of Cor. BF; maximum response to papaverine 300 μg ia = 100%) (left coronary artery): 100 μg ia
Duration of action of coronary vasodilating effect (left coronary artery): > 60 min
change in vivo at 1 mg/kg [3, 4]: 24%
change in vivo at 1 mg/kg [3, 5]: -20%

Compound: COC(=O)C1=C(C)NC(C)=C(C(=O)OCCCCNCC(O)COc2ccccc2)C1c1cccc([N+](=O)[O-])c1.Cl (stereo not drawn) [Example 11, 4-(2-hydroxy-3-phenoxy-propylamino)butyl methyl 2,6-dimethyl-4-(m-nitro-phenyl)-1,4-dihydropyridine-3,5-dicarboxylate hydrochloride]
ISA (increase in HR) (Beta-adrenoceptor [1]): ++ (an increase in HR by 20 to 29 beats/min was observed)
ED50 (Beta-adrenoceptor [2]): 0.64 mg/kg
ED100 pap (dose for 100% increase of Cor. BF; maximum response to papaverine 300 μg ia = 100%) (left coronary artery): 150 μg ia
Duration of action of coronary vasodilating effect (left coronary artery): 60 min
change in vivo at 0.1 mg/kg [3, 4]: 35%
change in vivo at 0.1 mg/kg [3, 5]: -16%
change in vivo at 1 mg/kg [3, 4]: 193%
change in vivo at 1 mg/kg [3, 5]: -41%

Compound: COC(=O)C1=C(C)NC(C)=C(C(=O)OCCCCCCNCC(O)COc2ccccc2)C1c1ccccc1OC.Cl (stereo not drawn) [Example 47, 6-(2-hydroxy-3-phenoxypropylamino)hexyl methyl 2,6-dimethyl-4-(o-methoxyphenyl)-1,4-dihydropyridine-3,5-dicarboxylate hydrochloride]
ISA (increase in HR) (Beta-adrenoceptor [1]): +++ (an increase in HR by above 30 beats/min)
ED50 (Beta-adrenoceptor [2]): 0.11 mg/kg
ED100 pap (dose for 100% increase of Cor. BF; maximum response to papaverine 300 μg ia = 100%) (left coronary artery): 245 μg ia
Duration of action of coronary vasodilating effect (left coronary artery): > 60 min
change in vivo at 0.3 mg/kg [3, 4]: 30%
change in vivo at 0.3 mg/kg [3, 5]: -34%
change in vivo at 1 mg/kg [3, 4]: 57%
change in vivo at 1 mg/kg [3, 5]: -44%

ED50 (Beta-adrenoceptor [2]): 0.58 mg/kg
Compound: COC(=O)C1=C(C)NC(C)=C(C(=O)OCCCCCCNCC(O)COc2ccccc2)C1c1ccccc1[N+](=O)[O-] (stereo not drawn) [Example 41, 6-(2-hydroxy-3-phenoxypropylamino)hexyl methyl 2,6-dimethyl-4-(o-nitrophenyl)-1,4-dihydropyridine-3,5-dicarboxylate]
ISA (increase in HR) (Beta-adrenoceptor [1]): +++ (an increase in HR by above 30 beats/min)
ED100 pap (dose for 100% increase of Cor. BF; maximum response to papaverine 300 μg ia = 100%) (left coronary artery): 43 μg ia
Duration of action of coronary vasodilating effect (left coronary artery): > 60 min
change in vivo at 0.3 mg/kg [3, 4]: 45%
change in vivo at 0.3 mg/kg [3, 5]: -34%
